Assay results reported in US10011614B2, “Bis-β-carboline compound and preparation method, pharmaceutical composition and use thereof” (XINJIANG HUASHIDAN PHARMACEUTICAL RESEARCH CO., LTD., priority 2012, dated 2018).

Assays:
[1] = system: A375 (human malignant melanoma cells); test: Antitumor screening in vitro, MTT assay, A375; assay type: cell-based
Experimental: (§1) Cell lines: BGC (human gastric cancer cells), A375 (human malignant melanoma cells), 769-P (human renal carcinoma cells), KB (human oral epidermoid carcinoma cells), SK-OV-3 (human ovarian cancer cells), etc, were selected, and the test method was the MTT assay. Cisplatin was as a positive control.
(§2) Specific methods are as follows: cells growing well in the logarithmic phase were seeded in 96-well plates at a concentration of 1×10^4 cells/ml, and then were placed in 37° C., containing 5% CO2 incubator for 24 hours. After discarding the old solution, changed fresh medium, and added sterilization treatment compound, and then cultured for 48 hours. After discarding the culture medium, 20 ul RPMI1640 medium containing 5 mg/ml MTT were added to each well in 96-well plates and cells were cultured for 4 hours. After the supernatant was carefully removed, 100 μl DMSO was added to each well, and the plates were Oscillated about 10 min to dissolve the precipitate, followed by detecting OD value in wavelength 490 nm by the microplate reader. Cell survival rate for each sample concentrations was determined by the following formula: The mean survival rate %=the average OD value of sample group/the average OD value of control group×100%
(§3) Morphological studies by mapping with the logarithm of the drug concentration and the mean survival rate % of each sample to obtain IC50 values for each sample.

[2] = system: SK-OV-3 (human ovarian cancer cells); test: Antitumor screening in vitro, MTT assay, SK-OV-3; assay type: cell-based; details: 48 hours, SK-OV-3 cells
Experimental: as §1, §2, §3

[3] = system: BGC (human gastric cancer cells); test: Antitumor screening in vitro, MTT assay, BGC; assay type: cell-based; details: 48 hours
Experimental: as §1, §2, §3

[4] = system: 769-P (human renal carcinoma cells); test: Antitumor screening in vitro, MTT assay, 769-P; assay type: cell-based; details: 48 hours, 769-P cells
Experimental: as §1, §2, §3

[5] = system: KB (human oral epidermoid carcinoma cells); test: Antitumor screening in vitro, MTT assay, KB; assay type: cell-based; details: 48 hours
Experimental: as §1, §2, §3

Row | Compound | IC50 ([1]; Homo sapiens, A-375, 48 hours) | IC50 ([2]; Homo sapiens) | melting point | IC50 ([3]; Homo sapiens) | IC50 ([4]; Homo sapiens) | IC50 ([5]; Homo sapiens) | IC50 ([1]; 48 hours) | IC50 [2] | IC50 [3] | IC50 [4] | IC50 [5]
1 | c1ccc2c(c1)c1ccncc1n2CCCCCCCCn1c2ccccc2c2ccncc21 [Compound 5, 1,8-bis(β-carboline-9-yl) octane] | 285 µM | 33.5 µM | 180 to 181 °C | > 300 µM | > 300 µM | > 300 µM |  |  |  |  | 
2 | Cc1nccc2c3ccccc3n(CCCn3c4ccccc4c4ccnc(C)c43)c12 [Compound 6, 1,3-bis (1-methyl-β-carboline-9-yl) propane] | 69.5 µM | 26.4 µM | 239 to 240 °C | 252 µM | 145 µM | 160 µM |  |  |  |  | 
3 | Cc1nccc2c3ccccc3n(CCCCCn3c4ccccc4c4ccnc(C)c43)c12 [Compound 8, 1,5-bis(1-methyl-β-carboline-9-yl)pentane] | > 300 µM | 18.8 µM | 213 to 214 °C | > 300 µM | > 300 µM | > 300 µM |  |  |  |  | 
4 | Cc1nccc2c3ccccc3n(CCCCCCCn3c4ccccc4c4ccnc(C)c43)c12 [Compound 10, 1,7-bis(1-methyl-β-carboline-9-yl) heptane] | 38 µM | 16.9 µM | 189 to 190 °C | 134 µM | 149 µM | 87.9 µM |  |  |  |  | 
5 | Cc1nccc2c3ccccc3n(CCCCCCCCCn3c4ccccc4c4ccnc(C)c43)c12 [Compound 12, 1,9-bis(1-methyl-β-carboline-9-yl) nonane] | 67.2 µM | 61.9 µM | 155 to 156 °C | > 300 µM | 291 µM | > 300 µM |  |  |  |  | 
6 | Cc1nccc2c3ccccc3n(CCCCCCCCCCn3c4ccccc4c4ccnc(C)c43)c12 [Compound 13, 1,10-bis(1-methyl-β-carboline-9-yl) decane] | > 300 µM | 8.5 µM | 152 to 154 °C | > 300 µM | 16.2 µM | > 300 µM |  |  |  |  | 
7 | COc1ccc2c3ccnc(C)c3n(CCCCCn3c4cc(OC)ccc4c4ccnc(C)c43)c2c1 [Compound 15, 1,5-bis(7-methoxy-1-methyl-β-carboline-9-yl)pentane] | < 1.38 µM | 1.7 µM | 180 to 181 °C | 58.6 µM | 81 µM | 5 µM |  |  |  |  | 
8 | Clc1ccccc1-c1nccc2c3ccccc3n(CCCCCCCn3c4ccccc4c4ccnc(-c5ccccc5Cl)c43)c12 [Compound 36, 1,7-bis[1-(2-chlorophenyl)-β-carboline-9-yl) heptane] | 10.4 µM | > 300 µM |  | > 300 µM | 82.1 µM | > 300 µM |  |  |  |  | 
9 | O=[N+]([O-])c1ccc(Cl)c(-c2nccc3c4ccccc4n(CCCCCCn4c5ccccc5c5ccnc(-c6cc([N+](=O)[O-])ccc6Cl)c54)c23)c1 [Compound 37, 1,6-bis[1-(2-chloro-5-nitro-phenyl)-⊕-carboline-9-yl) hexane] |  |  |  |  |  |  | 7 µM | > 300 µM | > 300 µM | 3.8 µM | > 300 µM
10 | O=[N+]([O-])c1ccc(Cl)c(-c2nccc3c4ccccc4n(CCCCCCCCCn4c5ccccc5c5ccnc(-c6cc([N+](=O)[O-])ccc6Cl)c54)c23)c1 [Compound 38, 1,9-bis[1-(2-chloro-5-nitrophenyl)-β-carboline-9-yl) nonane] | > 300 µM | > 300 µM |  | > 300 µM | 1.8 µM | > 300 µM |  |  |  |  | 
11 | CC(C)c1nccc2c3ccccc3n(CCCCCCCCCCn3c4ccccc4c4ccnc(C(C)C)c43)c12 [Compound 40, 1,10-bis[1-isopropyl-β-carboline-9-yl) decane] | 19.6 µM | > 300 µM |  | > 300 µM | 4.6 µM | > 300 µM |  |  |  |  | 
12 | Brc1ccc2c(c1)c1ccncc1n2CCCCn1c2ccc(Br)cc2c2ccncc21 [Compound 41, 1,4-bis[6-bromo-βcarboline-9-yl) butane] | > 300 µM | 8.9 µM |  | > 300 µM | 3.1 µM | > 300 µM |  |  |  |  | 
